Assay [1] addresses Receptor tyrosine-protein kinase erbB-2 (Homo sapiens, UniProt P04626). Put plainly: Selectivity interaction (Rxn Biology Kinase assay) EUB0001632a ERBB2. The conditions noted are these: at 10 µM.
In assay [2] the target is T1, Tyrosine-protein kinase ITK/TSK (Homo sapiens) (UniProt Q08881).
T1 sequence (whole entry): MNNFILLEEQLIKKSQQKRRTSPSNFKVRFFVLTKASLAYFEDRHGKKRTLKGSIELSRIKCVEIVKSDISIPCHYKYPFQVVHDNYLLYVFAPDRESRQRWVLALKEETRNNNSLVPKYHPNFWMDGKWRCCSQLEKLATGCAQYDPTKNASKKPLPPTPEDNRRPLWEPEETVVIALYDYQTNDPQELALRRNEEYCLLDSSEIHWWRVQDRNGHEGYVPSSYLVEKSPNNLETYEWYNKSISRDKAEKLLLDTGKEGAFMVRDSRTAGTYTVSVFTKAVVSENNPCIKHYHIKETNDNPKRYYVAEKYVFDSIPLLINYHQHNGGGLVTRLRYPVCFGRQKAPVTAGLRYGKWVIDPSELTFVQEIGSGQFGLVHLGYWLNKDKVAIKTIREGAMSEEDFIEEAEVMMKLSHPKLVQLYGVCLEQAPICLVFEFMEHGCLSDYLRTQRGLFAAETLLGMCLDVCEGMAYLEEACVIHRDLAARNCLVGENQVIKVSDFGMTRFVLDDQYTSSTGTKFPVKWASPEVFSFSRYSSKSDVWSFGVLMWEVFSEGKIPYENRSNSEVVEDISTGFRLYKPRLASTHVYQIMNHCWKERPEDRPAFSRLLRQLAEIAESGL
Put plainly: Selectivity interaction (Kinase panel (KiNativ target engagement assay in Jurkat cells)) EUB0001635a ITK. It counts as cell-based. The conditions noted are these: at 1 µM.

Assay [3] addresses T2, Histone-lysine N-methyltransferase EHMT2 (Homo sapiens) (UniProt Q96KQ7).
T2 sequence (whole entry): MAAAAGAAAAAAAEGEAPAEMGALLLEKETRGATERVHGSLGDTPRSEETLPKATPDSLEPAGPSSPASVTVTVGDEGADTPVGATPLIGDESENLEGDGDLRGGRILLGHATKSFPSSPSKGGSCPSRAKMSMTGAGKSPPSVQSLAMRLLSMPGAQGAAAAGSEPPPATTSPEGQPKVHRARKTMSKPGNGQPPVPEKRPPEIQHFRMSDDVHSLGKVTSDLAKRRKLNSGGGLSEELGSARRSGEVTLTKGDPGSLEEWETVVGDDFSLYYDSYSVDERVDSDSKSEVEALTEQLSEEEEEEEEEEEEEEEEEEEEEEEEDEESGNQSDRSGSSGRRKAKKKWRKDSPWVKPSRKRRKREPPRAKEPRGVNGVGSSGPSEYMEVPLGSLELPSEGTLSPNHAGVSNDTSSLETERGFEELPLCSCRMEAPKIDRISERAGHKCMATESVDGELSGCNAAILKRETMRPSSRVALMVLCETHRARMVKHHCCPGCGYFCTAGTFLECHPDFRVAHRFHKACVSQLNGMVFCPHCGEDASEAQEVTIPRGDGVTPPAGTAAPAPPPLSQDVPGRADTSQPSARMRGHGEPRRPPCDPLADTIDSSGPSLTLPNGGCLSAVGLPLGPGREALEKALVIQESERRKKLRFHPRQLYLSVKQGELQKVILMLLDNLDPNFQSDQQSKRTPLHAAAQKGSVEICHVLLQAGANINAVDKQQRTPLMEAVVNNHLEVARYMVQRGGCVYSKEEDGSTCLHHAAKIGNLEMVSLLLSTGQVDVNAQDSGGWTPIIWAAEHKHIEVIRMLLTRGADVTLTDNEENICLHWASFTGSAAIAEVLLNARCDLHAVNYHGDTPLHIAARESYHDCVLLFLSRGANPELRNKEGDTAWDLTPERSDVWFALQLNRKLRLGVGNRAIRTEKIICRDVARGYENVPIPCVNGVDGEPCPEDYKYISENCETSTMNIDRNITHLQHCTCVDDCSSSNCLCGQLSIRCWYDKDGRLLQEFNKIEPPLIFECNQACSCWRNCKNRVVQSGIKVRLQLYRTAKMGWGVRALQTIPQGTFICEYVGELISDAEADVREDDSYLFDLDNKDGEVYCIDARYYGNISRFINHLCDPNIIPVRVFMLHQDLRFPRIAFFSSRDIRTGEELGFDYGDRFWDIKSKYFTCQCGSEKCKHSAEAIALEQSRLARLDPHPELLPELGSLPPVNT
As to conditions: at 10 µM.

Assay [4] has as its target T3, Casein kinase I isoform alpha-like (Homo sapiens) (UniProt Q8N752).
T3 sequence (whole entry): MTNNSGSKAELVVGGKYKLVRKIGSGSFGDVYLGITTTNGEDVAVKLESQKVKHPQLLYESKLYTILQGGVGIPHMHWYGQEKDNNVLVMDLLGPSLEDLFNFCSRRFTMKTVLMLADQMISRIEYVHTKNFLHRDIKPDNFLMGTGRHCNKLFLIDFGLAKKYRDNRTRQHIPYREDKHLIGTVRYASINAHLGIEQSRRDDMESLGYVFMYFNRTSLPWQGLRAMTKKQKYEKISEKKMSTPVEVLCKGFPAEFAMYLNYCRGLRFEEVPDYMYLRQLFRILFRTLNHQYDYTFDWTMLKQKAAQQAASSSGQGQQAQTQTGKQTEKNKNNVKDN
Put plainly: Selectivity interaction (KinomeScan (DiscoverX)) EUB0000655a CSNK1A1L. The conditions noted are these: at 10 µM.

Assay [5] addresses Tyrosine-protein kinase ABL1 (Homo sapiens, UniProt P00519). Put plainly: Selectivity interaction (KinaseProfiler screening (Millipore)) EUB0000601a ABL1. As to conditions: at 3 µM.
Assay [6] addresses Cyclin-dependent kinase 7 (Homo sapiens, UniProt P50613). Briefly: Selectivity interaction (ActivX KiNativ screen (kinase selectivity in THP-1 cell lysates)) EUB0000639a CDK7. The assay is classed as subcellular. As to conditions: lysate, at 0.2 µM.
In assay [7] the target is Histone-lysine N-methyltransferase ASH1L (Homo sapiens) (UniProt Q9NR48). Put plainly: Selectivity interaction (Bromodomain panel (DSF asssay)) EUB0000270b ASH1L.

Chain of Tyrosine-protein kinase ABL1 (P00519 whole entry): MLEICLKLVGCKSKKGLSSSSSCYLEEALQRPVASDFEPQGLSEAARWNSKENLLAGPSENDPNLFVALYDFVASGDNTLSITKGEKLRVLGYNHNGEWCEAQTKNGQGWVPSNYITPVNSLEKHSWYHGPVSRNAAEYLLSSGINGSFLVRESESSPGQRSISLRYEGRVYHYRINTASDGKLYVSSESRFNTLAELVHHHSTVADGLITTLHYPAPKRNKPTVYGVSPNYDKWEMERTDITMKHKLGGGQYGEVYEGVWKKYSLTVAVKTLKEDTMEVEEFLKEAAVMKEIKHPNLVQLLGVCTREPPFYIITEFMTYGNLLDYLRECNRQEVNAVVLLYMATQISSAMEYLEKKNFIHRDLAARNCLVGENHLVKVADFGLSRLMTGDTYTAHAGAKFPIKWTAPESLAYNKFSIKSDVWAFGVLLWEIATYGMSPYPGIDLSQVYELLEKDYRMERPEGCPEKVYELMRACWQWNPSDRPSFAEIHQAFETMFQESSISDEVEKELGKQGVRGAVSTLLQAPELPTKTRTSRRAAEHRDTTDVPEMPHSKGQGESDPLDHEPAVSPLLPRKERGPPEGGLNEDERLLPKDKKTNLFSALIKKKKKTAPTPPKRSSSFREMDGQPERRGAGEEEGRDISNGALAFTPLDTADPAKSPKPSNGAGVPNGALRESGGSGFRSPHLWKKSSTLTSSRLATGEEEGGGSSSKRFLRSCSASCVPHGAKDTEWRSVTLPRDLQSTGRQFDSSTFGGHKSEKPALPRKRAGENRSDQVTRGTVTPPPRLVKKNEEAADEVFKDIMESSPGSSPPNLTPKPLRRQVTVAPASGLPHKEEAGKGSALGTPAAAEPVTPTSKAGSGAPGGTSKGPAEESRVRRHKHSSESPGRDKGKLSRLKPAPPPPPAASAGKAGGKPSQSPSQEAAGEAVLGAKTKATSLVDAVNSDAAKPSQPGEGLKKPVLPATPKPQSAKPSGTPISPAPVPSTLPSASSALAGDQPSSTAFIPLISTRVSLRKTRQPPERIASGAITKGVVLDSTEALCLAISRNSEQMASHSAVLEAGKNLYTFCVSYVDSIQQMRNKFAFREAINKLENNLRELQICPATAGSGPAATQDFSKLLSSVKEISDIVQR
Chain of Receptor tyrosine-protein kinase erbB-2 (P04626 whole entry): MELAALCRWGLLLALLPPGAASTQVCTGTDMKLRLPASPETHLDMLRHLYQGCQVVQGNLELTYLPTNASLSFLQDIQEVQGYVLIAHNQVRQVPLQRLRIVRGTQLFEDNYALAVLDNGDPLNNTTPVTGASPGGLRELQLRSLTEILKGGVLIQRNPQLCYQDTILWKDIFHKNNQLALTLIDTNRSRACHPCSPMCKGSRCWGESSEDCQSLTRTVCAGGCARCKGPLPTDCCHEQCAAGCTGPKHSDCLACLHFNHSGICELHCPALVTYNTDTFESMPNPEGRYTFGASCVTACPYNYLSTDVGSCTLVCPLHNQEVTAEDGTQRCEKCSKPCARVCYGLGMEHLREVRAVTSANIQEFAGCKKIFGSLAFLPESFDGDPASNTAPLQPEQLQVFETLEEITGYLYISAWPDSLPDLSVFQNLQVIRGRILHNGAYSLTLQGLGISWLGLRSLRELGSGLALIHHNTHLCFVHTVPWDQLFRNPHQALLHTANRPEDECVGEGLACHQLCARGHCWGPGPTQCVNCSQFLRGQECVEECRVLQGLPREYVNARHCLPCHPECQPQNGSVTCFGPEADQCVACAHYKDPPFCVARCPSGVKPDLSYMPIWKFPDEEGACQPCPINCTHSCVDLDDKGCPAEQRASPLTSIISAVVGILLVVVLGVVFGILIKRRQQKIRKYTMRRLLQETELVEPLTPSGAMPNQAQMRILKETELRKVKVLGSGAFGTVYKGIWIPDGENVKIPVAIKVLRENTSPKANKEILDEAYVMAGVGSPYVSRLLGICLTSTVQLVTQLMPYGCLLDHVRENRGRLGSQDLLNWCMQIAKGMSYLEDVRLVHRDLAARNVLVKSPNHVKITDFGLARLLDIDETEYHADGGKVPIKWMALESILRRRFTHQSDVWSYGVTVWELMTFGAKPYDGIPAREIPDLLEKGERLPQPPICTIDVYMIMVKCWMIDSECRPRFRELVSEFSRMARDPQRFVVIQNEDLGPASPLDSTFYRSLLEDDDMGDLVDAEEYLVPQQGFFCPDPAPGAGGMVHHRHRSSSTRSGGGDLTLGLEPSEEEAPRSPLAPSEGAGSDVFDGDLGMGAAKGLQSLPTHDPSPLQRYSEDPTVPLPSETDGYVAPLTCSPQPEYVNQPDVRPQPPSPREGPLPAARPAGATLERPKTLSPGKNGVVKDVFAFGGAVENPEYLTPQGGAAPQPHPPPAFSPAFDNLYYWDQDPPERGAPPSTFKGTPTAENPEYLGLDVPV
Chain of Cyclin-dependent kinase 7 (P50613 whole entry): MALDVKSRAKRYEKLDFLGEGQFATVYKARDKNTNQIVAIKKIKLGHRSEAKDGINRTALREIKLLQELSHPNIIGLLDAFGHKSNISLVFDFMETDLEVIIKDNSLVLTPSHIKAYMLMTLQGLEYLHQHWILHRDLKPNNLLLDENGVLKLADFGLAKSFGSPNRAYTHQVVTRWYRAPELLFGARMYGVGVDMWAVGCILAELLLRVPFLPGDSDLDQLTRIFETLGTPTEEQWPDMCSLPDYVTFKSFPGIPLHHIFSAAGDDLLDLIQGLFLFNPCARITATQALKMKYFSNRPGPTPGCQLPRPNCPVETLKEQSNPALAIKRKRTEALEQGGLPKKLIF

Take `Cn1cc(-n2cnc3c(NCc4nc5cc(Cl)c(Cl)cc5[nH]4)nc(N4CCOCC4)nc32)cn1`: the % of inhibition in assay [1] stood at 2.6%.

In the case of `C=CC(=O)Nc1ccc(C(=O)Nc2[nH]nc3c2CN(C(=O)N[C@H](CN(C)C)c2ccccc2)C3(C)C)cc1`, the % of engagement came to 0.3% in assay [2] (Selectivity number of off-targets 0.0, Selectivity number of targets 233.0, Source Knowledge https://www.sciencedirect.com/science/article/pii/S2451945619300674?via%3Dihub) and 2.5% in assay [2]. In assay [3], `CNCCN1CCC(c2cc(CN(C)C(=O)c3cccc(Oc4ccccc4)c3)ccn2)CC1` came in with a % activity above 90%.

In turn, `CN(C)CCOc1ccc(-c2nc(-c3ccncc3)c(-c3ccc4c(c3)CC/C4=N\O)[nH]2)cc1` came in with a % of control in assay [4] of 88%. As for `CCc1cc(Nc2nccc(-c3c(-c4ccc(OC)c(C(=O)Nc5c(F)cccc5F)c4)nc4ccccn34)n2)c(OC)cc1N1CCC(N2CCN(S(C)(=O)=O)CC2)CC1`, the % of inhibition in assay [5] came to 57%.

As for `CC[C@@H]1[C@H](F)C(=O)N[C@@H]1COc1nccc2cc(C(N)=O)c(OC)cc12` [ZIMLOVISERTIB], the % of inhibition in assay [6] was -4.5%. In assay [7], `Cc1cc(CN)cc(C)c1-c1ncn(C)c1-c1cncn1C` gave a dTM of -1.06 K.

The record behind these values is ChEMBL document CHEMBL5465560, “Selectivity Literature for EUbOPEN Chemogenomic Library” (2024).
